Laboratory results: BindingDB's records for doi:10.1016/j.ejmech.2017.04.013 (Ghent University, 2017)

Columns and labels:
[1] = target: Histone deacetylase 1 (Homo sapiens, UniProt Q13547); experiment: Inhibition of HDAC1 (unknown origin)
[2] = target: Histone deacetylase 9 (Homo sapiens, UniProt Q9UKV0); experiment: ChEBML_1684755
[3] = target: Histone deacetylase 8 (Homo sapiens) (UniProt Q9BY41); experiment: Inhibition of recombinant human HDAC8 using Boc-Lys (Ac)-AMC substrate by fluorescence assay
Histone deacetylase 8 (Homo sapiens), sequence (Q9BY41 whole entry, looked up): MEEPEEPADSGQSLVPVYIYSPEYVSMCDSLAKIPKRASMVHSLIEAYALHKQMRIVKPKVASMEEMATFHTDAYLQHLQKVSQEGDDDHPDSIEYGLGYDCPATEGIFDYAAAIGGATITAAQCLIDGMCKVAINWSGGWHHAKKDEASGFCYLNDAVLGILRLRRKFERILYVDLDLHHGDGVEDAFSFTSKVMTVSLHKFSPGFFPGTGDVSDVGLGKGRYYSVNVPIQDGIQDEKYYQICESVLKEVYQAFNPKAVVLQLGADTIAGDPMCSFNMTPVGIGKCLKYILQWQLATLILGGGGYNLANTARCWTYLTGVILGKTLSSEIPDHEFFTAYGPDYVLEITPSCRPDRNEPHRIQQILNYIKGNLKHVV

Histone deacetylase 1, sequence (Q13547 whole entry): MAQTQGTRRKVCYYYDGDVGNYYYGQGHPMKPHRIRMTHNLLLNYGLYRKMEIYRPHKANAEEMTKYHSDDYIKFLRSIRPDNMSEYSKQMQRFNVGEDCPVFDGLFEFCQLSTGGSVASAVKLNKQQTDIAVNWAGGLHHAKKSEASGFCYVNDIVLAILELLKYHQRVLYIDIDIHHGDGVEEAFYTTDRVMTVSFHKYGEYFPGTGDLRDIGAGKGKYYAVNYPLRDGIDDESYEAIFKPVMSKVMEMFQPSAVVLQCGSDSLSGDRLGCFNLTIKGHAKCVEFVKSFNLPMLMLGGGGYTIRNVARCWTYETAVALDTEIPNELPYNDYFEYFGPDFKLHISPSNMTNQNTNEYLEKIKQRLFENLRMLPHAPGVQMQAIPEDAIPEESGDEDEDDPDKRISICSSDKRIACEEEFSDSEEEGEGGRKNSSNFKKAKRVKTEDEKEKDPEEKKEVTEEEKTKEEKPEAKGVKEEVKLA
Histone deacetylase 9, sequence (Q9UKV0 whole entry): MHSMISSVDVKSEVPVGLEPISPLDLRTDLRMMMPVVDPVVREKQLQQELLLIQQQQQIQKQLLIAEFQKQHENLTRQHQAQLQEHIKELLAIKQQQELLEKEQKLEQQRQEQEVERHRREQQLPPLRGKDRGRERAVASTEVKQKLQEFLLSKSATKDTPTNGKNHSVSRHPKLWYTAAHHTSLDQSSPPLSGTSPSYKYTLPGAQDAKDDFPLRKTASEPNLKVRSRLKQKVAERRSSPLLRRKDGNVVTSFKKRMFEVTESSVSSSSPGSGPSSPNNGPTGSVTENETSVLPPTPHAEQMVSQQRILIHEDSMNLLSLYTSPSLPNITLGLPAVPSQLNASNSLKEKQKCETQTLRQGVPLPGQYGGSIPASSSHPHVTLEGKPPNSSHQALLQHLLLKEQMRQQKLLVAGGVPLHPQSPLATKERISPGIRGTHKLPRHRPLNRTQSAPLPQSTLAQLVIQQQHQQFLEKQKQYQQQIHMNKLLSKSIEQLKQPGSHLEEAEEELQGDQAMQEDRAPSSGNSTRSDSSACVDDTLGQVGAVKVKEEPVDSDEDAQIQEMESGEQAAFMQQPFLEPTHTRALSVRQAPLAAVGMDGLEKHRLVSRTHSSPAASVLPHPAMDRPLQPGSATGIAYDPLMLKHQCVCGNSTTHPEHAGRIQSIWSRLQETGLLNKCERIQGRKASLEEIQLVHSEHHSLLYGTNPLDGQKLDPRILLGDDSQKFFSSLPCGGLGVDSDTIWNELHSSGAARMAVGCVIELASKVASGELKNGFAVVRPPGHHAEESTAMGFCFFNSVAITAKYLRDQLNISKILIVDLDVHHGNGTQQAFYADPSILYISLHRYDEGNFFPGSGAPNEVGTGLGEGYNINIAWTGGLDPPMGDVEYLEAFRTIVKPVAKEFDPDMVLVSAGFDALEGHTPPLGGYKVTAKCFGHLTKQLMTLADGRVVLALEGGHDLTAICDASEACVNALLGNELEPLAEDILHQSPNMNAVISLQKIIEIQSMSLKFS

IC50 [1] [µM] | IC50 [2] [nM] | IC50 [3] [nM] | SMILES
9 | 70 | – | Cc1nc2ccccc2n1Cc1ccc(C(=O)NO)cc1F
– | – | 280 | O=C(NO)c1ccc(Cn2cc(-c3ccc(CN4CCCC4)cc3)nn2)cc1
